# In patent publication US5238938A, “Indole derivatives” (Otsuka Pharmaceutical Co., Ltd., priority 1989, dated 1993):
# Tested on: releasing of lysosome from the neutrocytes of rat
# Assay: Inhibitory effect against the releasing of lysosome from the neutrocytes of rat
# Assay type: cell-based
# Conditions: 0.25 h; rat neutrocytes 5×10^5 cells/ml; FMLP 10^-6 M + cytochalasin B 5 μg/ml; 15 minutes; OD550; read-out: 50% inhibitory concentration (IC50), releasing of lysosome
# Protocol: Inhibitory effect against the releasing of lysosome from the neutrocytes of rat
# The neutrocytes of rat were samples from the abdominal cavity of the reat 16 hours after the administration of 10 ml of 1%-casein solution (physiological saline solution).
# Reaction of the releasing of lysosome from the neutrocytes of rat was determined by means of the method described in an article by T. Matsumoto, K. Takeshige and S. Minakami: Biochemical and Biophysical Research Communications, Vol. 88, No. 3, pp. 974-979, (1979).
# The neutrocytes being sampled were added to Hank's soluiton so as to make the concentraiton thereof as 5×10^5 cells/ml, and the test compound of indole derivative of the present invention was added thereto to make the test group sample. On the other hand, water was added in place of the indole derivative of the present invention to make the control group sample. Each of the test group sample and the control group sample was subjected to pre-incubation at 37° C. for 1 minute.
# As to the stimulating agents, 10^-6 M of FMLP (formylmethionyl leucyl phenylalanine) and 5 μg/ml of cytochalasin B were added to the solution. Thus, obtained mixture of the solution was reacted by incubating for 15 minutes. After the incubation, the mixture of the solution was subjected to centrifugation at 2,000 rpm for 10 minutes. The supernatant (0.2 ml) was admixed with 0.5 ml of 0.1M-acetic acid buffer solution (pH 4.5) in which 0.2 mM of phenolphthalein glucuronic acid was dissolved. Then the resulting mixture of the solutions was reacted at 37° C. for 5 hours by incubation. After the reaction, 1N-NaOH solution was added to the reaction mixture so as to make the pH thereof to pH 8-9, and the optical absorbance of both test group samples and control group samples were determined at 550 nm (OD550).
# The 50% inhibitory concentration (IC50) values were obtained by calculating as the ratio of OD550 of the test group samples to that of the control group samples.
row,IC50,SMILES
1,35 µg/mL,"CN1C(=O)C(c2ccccc2)NC(=O)/C1=C/c1c[nH]c2ccccc12 (centres unmarked) [Compound A-4a, (Z)-6-(indol-3-yl)methylidene-1-methyl-3-phenylpiperazine-2,5-dione]"
2,30 µg/mL,"CC(C)C[C@@H]1NC(=O)/C(=C/c2c[nH]c3ccccc23)N(C)C1=O [Compound A-4b, (3S,Z)-6-(Indol-3-yl)methylidene-3-isobutyl-1-methylpiperazine-2,5-dione]"
3,25 µg/mL,"COC1=N[C@@H](CC(C)C)C(=O)N(C)/C1=C\c1c[nH]c2ccccc12 [Compound A-5b, (3S,Z)-6-(Indol-3-yl)methylidene-3-isobutyl-5-methoxy-1-methyl-1,2,3,6-tetrahydropyrazin-2-one]"
4,30 µg/mL,"COc1nc(-c2ccccc2)c(=O)n(C)c1Cc1c[nH]c2ccccc12 [Compound A-6a, 6-(indol-3-yl)methyl-5-methoxy-1-methyl-3-phenyl-1,2-dihydropyrazin-2-one]"
5,30 µg/mL,"COc1nc(CC(C)C)c(=O)n(C)c1Cc1c[nH]c2ccccc12 [Compound A-6b, 6-(Indol-3-yl)methyl-3-isobutyl-5-methoxy-1-methyl-1,2-dihydropyrazin-2-one]"
6,25 µg/mL,"COc1nc(CC(C)C)c(OC)nc1Cc1c[nH]c2ccccc12 [Compound A-19, 3-(Indol-3-yl)methyl-6-isobutyl-2,5-dimethoxypyrazine]"
7,50 µg/mL,"CCOc1nc(CC(C)C)c(OCC)nc1Cc1c[nH]c2ccccc12 [Compound A-23, 3-(Indol-3-yl)methyl-2,5-diethoxy-6-isobutylpyrazine]"
8,10 µg/mL,"CC(C)Cc1nc(Cl)c(Cc2c[nH]c3ccccc23)nc1Cl [Compound A-26, 3-(Indol-3-yl)methyl-2,5-dichloro-6-isobutylpyrazine]"
9,25 µg/mL,"CC(C)Cc1cnc(Cc2c[nH]c3ccccc23)cn1 [Compound A-27, 2-(indol-3-yl)methyl-5-isobutylpyrazine]"
10,50 µg/mL,"O=C1CN(O)C(=O)[C@H](Cc2c[nH]c3ccccc23)N1 [Compound A-29c, (3S)-1-Hydroxy-3-(indol-3-yl)methylpiperazine-2,5-dione]"
11,50 µg/mL,"CC(C)/C=c1\[nH]c(=O)/c(=C/c2c[nH]c3ccccc23)[nH]c1=O [Compound A-34, (Z,Z)-3-(indol-3-yl)methylidene-6-isobutylidenepiperazine-2,5-dione]"
12,50 µg/mL,"CC(C)C[C@H]1C(=O)N[C@@H](Cc2c[nH]c3ccccc23)C(=O)N1OCc1ccccc1 [Compound A-35d, (3S,6S)-1-Benzyloxy-3-(indol-3-yl)methyl-6-isobutyl-piperazine-2,5-dione]"
13,20 µg/mL,"COn1c(CC(C)C)c(Cl)nc(Cc2c[nH]c3ccccc23)c1=O [Compound A-45, 5-chloro-3-(indol-3-yl)methyl-6-isobutyl-1-methoxy-1,2-dihydropyrazin-2-one]"
14,50 µg/mL,"COC(=O)n1cc(Cc2nc(Cl)c(CC(C)C)[n+]([O-])c2OC)c2ccccc21 [Compound A-48, 3-Chloro-2-isobutyl-5-[(1-methoxycarbonyl)indol-3-yl]methyl-6-methoxypyrazineyl-oxide]"
15,43 µg/mL,"COn1c(C)c(C)nc(Cc2c[nH]c3ccccc23)c1=O [Compound A-53, 3-(Indol-3-yl)methyl-1-methoxy-5,6-dimethyl-1,2-dihydropyrazin-2-one]"
16,20 µg/mL,"COc1c(Cc2c[nH]c3ccccc23)n(C)c(=O)c(CC(C)C)[n+]1[O-] [Compound A-59, 6-(indol-3-yl)methyl-3-isobutyl-5-methoxy-1-methyl-1,2-dihydropyrazin-2-one 4-oxide]"
17,20 µg/mL,"COc1nc(Cc2c[nH]c3ccccc23)c(OC)[n+]([O-])c1CC(C)C [Compound A-60, 3-(indol-3-yl)methyl-6-isobutyl-2,5-dimethoxypyrazine 1-oxide]"
18,50 µg/mL,"CC(C)Cc1c(=O)[nH]c(Cc2c[nH]c3ccccc23)c[n+]1[O-] [Compound A-84, 6-(indol-3-yl)methyl-3-isobutyl-1,2-dihydropyrazin-2-one 4-oxide]"
19,8 µg/mL,"COc1c(Cc2c(-c3ccccc3)[nH]c3ccccc23)[nH]c(=O)c(CC(C)C)[n+]1[O-] [Compound E-34g, 3-Isobutyl-5-methoxy-6-[(2-phenyl)indol-3-yl]methyl-1,2-dihydropyrazin-2-one 4-oxide]"
20,12 µg/mL,"COc1c(Cn2ccc3cc(C#N)ccc32)[nH]c(=O)c(CC(C)C)[n+]1[O-] [Compound E-36o, 6-[(5-cyano)indol-1-yl]methyl-3-isobutyl-5-methoxy-1,2-dihydropyrazin-2-one4-oxide]"
21,50 µg/mL,"COc1c(CC2C(=O)Nc3ccccc32)[nH]c(=O)c(CC(C)C)[n+]1[O-] (centres unmarked) [Compound E-39, 2-Isobutyl-5-methxoy-6-(oxindol-3-yl)methyl-1,2-dihydropyrazin-2-one 4-oxide]"

row,SMILES,IC50
1,"COc1nc(CC(C)C)c(OC(C)=O)nc1Cc1c[nH]c2ccccc12 [Compound A-20, 2-Acetoxy-6-(indol-3-yl)methyl-3-isobutyl-5-methoxypyrazine]",20 µg/mL
2,"COc1c(Cc2c[nH]c3ccccc23)nc(OC(C)=O)c(CC(C)C)[n+]1[O-] [Compound E-65, 3-Acetoxy-5-(indol-3-yl)methyl-2-isobutyl-6-methoxypyrazine 1-oxide]",9 µg/mL
